Assay results published in patent publication US8865623B2, “Herbicidally active cyclic diones and derivatives thereof, processes for their preparation, compositions, and method of controlling weeds” (Syngenta Limited, priority 2009, dated 2014).

Tests used:
Format in all cases: in vivo
Lolium perenne (LOLPE) [1] = test: Pre-emergence herbicidal activity, glasshouse pot test; details: Lolium perenne, 312 h; Rate 250 g/ha; pre-emergence spray; evaluated after 13 days; read-out: Pre-emergence activity LOLPE (100=total damage to plant; 0=no damage to plant)
Protocol: (§1) Seeds of a variety of test species were sown in standard soil in pots. After cultivation for one day (pre-emergence) or after 8 days cultivation (post-emergence) under controlled conditions in a glasshouse (at 24/16° C., day/night; 14 hours light; 65% humidity), the plants were sprayed with an aqueous spray solution derived from the formulation of the technical active ingredient in acetone/water (50:50) solution containing 0.5% Tween 20 (polyoxyethelyene sorbitan monolaurate, CAS RN 9005-64-5). The test plants were then grown in a glasshouse under controlled conditions in a glasshouse (at 24/16° C., day/night; 14 hours light; 65% humidity) and watered twice daily. After 13 days for pre and post-emergence, the test was evaluated (100=total damage to plant; 0=no damage to plant).
(§2) Lolium perenne (LOLPE), Alopecurus myosuroides (ALOMY), Echinochloa crus-galli (ECHCG), and Avena fatua (AVEFA).

[2] = tested on: Echinochloa crus-galli (ECHCG); test: as above; details: Echinochloa crus-galli, 312 h; Rate 250 g/ha; pre-emergence spray; evaluated after 13 days; read-out: Pre-emergence activity ECHCG (100=total damage to plant; 0=no damage to plant)
Protocol: as §1, §2

Avena fatua (AVEFA) [3] = test: as above; details: Avena fatua, 312 h; Rate 250 g/ha; pre-emergence spray; evaluated after 13 days; read-out: Pre-emergence activity AVEFA (100=total damage to plant; 0=no damage to plant)
Protocol: as §1, §2

[4] = tested on: Alopecurus myosuroides (ALOMY); test: as above; details: Alopecurus myosuroides, 312 h; Rate 250 g/ha; pre-emergence spray; evaluated after 13 days; read-out: Pre-emergence activity ALOMY (100=total damage to plant; 0=no damage to plant)
Protocol: as §1, §2

Lolium perenne (LOLPE) [5] = test: Post-emergence herbicidal activity, glasshouse pot test; details: Lolium perenne, 312 h, rate 250 g/ha, evaluated after 13 days, glasshouse, read-out: Post-emergence activity LOLPE (100=total damage to plant; 0=no damage to plant)
Protocol: as §1, §2

[6] = tested on: Echinochloa crus-galli (ECHCG); test: as above; details: Echinochloa crus-galli, 312 h, rate 250 g/ha, evaluated after 13 days, glasshouse, read-out: Post-emergence activity ECHCG (100=total damage to plant; 0=no damage to plant)
Protocol: as §1, §2

Avena fatua (AVEFA) [7] = test: as above; details: Avena fatua, 312 h, rate 250 g/ha, evaluated after 13 days, glasshouse, read-out: Post-emergence activity AVEFA (100=total damage to plant; 0=no damage to plant)
Protocol: as §1, §2

[8] = tested on: Alopecurus myosuroides (ALOMY); test: as above; details: Alopecurus myosuroides, 312 h, rate 250 g/ha, evaluated after 13 days, glasshouse, read-out: Post-emergence activity ALOMY (100=total damage to plant; 0=no damage to plant)
Protocol: as §1, §2

| SMILES | pest or weed control at 250 g/ha (Lolium perenne (LOLPE) [1]) [%] | pest or weed control at 250 g/ha [2] [%] | pest or weed control at 250 g/ha (Avena fatua (AVEFA) [3]) [%] | pest or weed control at 250 g/ha [4] [%] | pest or weed control at 250 g/ha (Lolium perenne (LOLPE) [5]) [%] | pest or weed control at 250 g/ha [6] [%] | pest or weed control at 250 g/ha (Avena fatua (AVEFA) [7]) [%] | pest or weed control at 250 g/ha [8] [%] |
| --- | --- | --- | --- | --- | --- | --- | --- | --- |
| CCc1ccc(Oc2ccc(F)cc2Cl)cc1C1=C(O)C(C)(C)OC(C)(C)C1=O [Example A-33] | 80 | 90 | 10 | 20 | 50 | 100 | 50 | 40 |
| CCc1ccc(Oc2ccc(C(F)(F)F)cn2)cc1C1=C(O)C(C)(C)OC(C)(C)C1=O [Example A-34] | 100 | 100 | 100 | 100 | 100 | 100 | 100 | 100 |
| CCc1ccc(Oc2ccc(F)cc2)cc1C1=C(O)CC2(CCOCC2)CC1=O [Example A-35] | 70 | 100 | 70 | 90 | 80 | 100 | 90 | 80 |
| CCc1ccc(Oc2ccc(Cl)cc2)cc1C1=C(O)CC2(CCOCC2)CC1=O [Example A-36] | 90 | 100 | 90 | 90 | 90 | 100 | 100 | 100 |
| CCc1ccc(Oc2ccc(Br)cc2)cc1C1=C(O)CC2(CCOCC2)CC1=O [Example A-37] | 80 | 100 | 70 | 70 | 90 | 100 | 100 | 100 |
| CCc1ccc(Oc2ccc(Cl)cc2F)cc1C1=C(O)CCCC1=O [Example A-38] | 70 | 70 | 10 | 50 | 30 | 80 | 30 | 20 |
| CCc1ccc(Oc2ccc(F)cc2Cl)cc1C1=C(O)CCCC1=O [Example A-39] | 30 | 40 | 0 | 30 | 30 | 70 | 0 | 30 |
| CCc1ccc(Oc2ccc(Cl)cc2Cl)cc1C1=C(O)CCCC1=O [Example A-40] | 50 | 80 | 20 | 50 | 30 | 90 | 40 | 30 |
| CCc1ccc(Oc2ccc(Br)cc2)cc1C1=C(O)CCCC1=O [Example A-41] | 60 | 100 | 20 | 40 | 30 | 90 | 10 | 30 |
| CCc1ccc(Oc2cccc(F)n2)cc1C1=C(O)C(C)(C)OC(C)(C)C1=O [Example A-43] | 10 | 90 | 0 | 10 | 20 | 70 | 0 | 0 |
| CCc1ccc(Oc2ncc(Cl)cc2Cl)cc1C1=C(O)C(C)(C)OC(C)(C)C1=O [Example A-44] | 100 | 100 | 100 | 100 | 100 | 100 | 100 | 100 |
| CCc1ccc(Oc2ncc(C(F)(F)F)cc2Cl)cc1C1=C(O)C(C)(C)OC(C)(C)C1=O [Example A-45] | 100 | 100 | 100 | 100 | 100 | 100 | 100 | 100 |
| CCc1ccc(Oc2ccc(Cl)c(F)c2)cc1C1=C(O)CC(C)(C)CC1=O [Example A-46] | 70 | 90 | 30 | 100 | 60 | 100 | 50 | 80 |
| CCc1ccc(Oc2ccc(F)cc2F)cc1C1=C(O)CC(C)(C)CC1=O [Example A-47] | 40 | 90 | 0 | 50 | 30 | 80 | 10 | 30 |
| CCc1ccc(Oc2ccc(Br)cc2)cc1C1=C(O)CC(C)(C)CC1=O [Example A-48] | 70 | 100 | 30 | 100 | 70 | 100 | 40 | 80 |
| CCc1ccc(Oc2ccc(Br)cc2F)cc1C1=C(O)CC(C)(C)CC1=O [Example A-49] | 100 | 100 | 40 | 90 | 90 | 100 | 70 | 90 |
| CCc1ccc(Oc2ccc(Cl)cc2)cc1C1=C(O)C(C)(C)CCC1=O [Example A-50] | 70 | 100 | 0 | 0 | 60 | 50 | 0 | 0 |
| CCc1ccc(Oc2ccc(Cl)c(F)c2)cc1C1=C(O)C(C)(C)CCC1=O [Example A-52] | 70 | 60 | 20 | 40 | 50 | 90 | 40 | 30 |
| CCc1ccc(Oc2cccc(C(F)(F)F)n2)cc1C1=C(O)C(C)(C)OC(C)(C)C1=O [Example A-53] | 40 | 20 | 0 | 0 | 30 | 80 | 0 | 0 |
| CCc1ccc(Oc2ncc(Cl)cc2F)cc1C1=C(O)C(C)(C)OC(C)(C)C1=O [Example A-54] | 100 | 100 | 90 | 100 | 100 | 100 | 100 | 100 |
| CCc1ccc(Oc2cnc3cc(Cl)ccc3n2)cc1C1=C(O)C(C)(C)OC(C)(C)C1=O [Example A-55] | 100 | 100 | 90 | 80 | 100 | 100 | 100 | 100 |
